Experimental data published in US10238670B2, “9-aminomethyl minocycline compounds and methods of use thereof in urinary tract infection (UTI) treatment” (Paratek Pharmaceuticals, Inc., priority 2016, dated 2019).
Like-named read-outs stand apart in the source and are kept apart here.

Assays:
human plasma protein = settings: cited from earlier work
E. coli ESBL− = assay: In vitro MIC, 2010 surveillance isolates; type: cell-based, Escherichia coli
E. coli ESBL+ = assay: In vitro MIC, 2010 surveillance isolates; type: cell-based, Escherichia coli
K. pneumoniae ESBL− = assay: In vitro MIC, 2010 surveillance isolates; type: cell-based, Klebsiella pneumoniae
K. pneumoniae ESBL+ = assay: In vitro MIC, 2010 surveillance isolates; type: cell-based, Klebsiella pneumoniae
K. oxytoca = assay: In vitro MIC, 2010 surveillance isolates; type: cell-based
E. cloacae CeftazS = assay: In vitro MIC, 2010 surveillance isolates; type: cell-based
E. cloacae CeftazR = assay: In vitro MIC, 2010 surveillance isolates; type: cell-based
Enterobacter spp = assay: In vitro MIC, 2010 surveillance isolates; type: cell-based
A. baumanii = assay: In vitro MIC, 2010 surveillance isolates; type: cell-based; settings: for % R (resistance): CLSI breakpoints
Acinetobacter spp = assay: In vitro MIC, 2010 surveillance isolates; type: cell-based; settings: for % R (resistance): CLSI breakpoints
MSSA = assay: In vitro MIC, 2010 surveillance isolates; type: cell-based
MRSA = assay: In vitro MIC, 2010 surveillance isolates; type: cell-based
MS CoNS = assay: In vitro MIC, 2010 surveillance isolates; type: cell-based, Coagulase-Negative Staphylococcus
MR CoNS = assay: In vitro MIC, 2010 surveillance isolates; type: cell-based, Coagulase-Negative Staphylococcus
E. faecalis VS = assay: In vitro MIC, 2010 surveillance isolates; type: cell-based
E. faecalis VNS = assay: In vitro MIC, 2010 surveillance isolates; type: cell-based
E. faecium VS = assay: In vitro MIC, 2010 surveillance isolates; type: cell-based
E. faecium VNS = assay: In vitro MIC, 2010 surveillance isolates; type: cell-based

CCCCCCCCCC(=O)N[C@@H](Cc1c[nH]c2ccccc12)C(=O)N[C@H](CC(N)=O)C(=O)N[C@@H](CC(=O)O)C(=O)N[C@@H]1C(=O)NCC(=O)N[C@@H](CCCN)C(=O)N[C@@H](CC(=O)O)C(=O)N[C@H](C)C(=O)N[C@@H](CC(=O)O)C(=O)NCC(=O)N[C@H](CO)C(=O)N[C@@H]([C@H](C)CC(=O)O)C(=O)N[C@@H](CC(=O)c2ccccc2N)C(=O)O[C@@H]1C [Daptomycin]
protein bound in human plasma (human plasma protein): > 75%

CC(=O)NC[C@H]1CN(c2ccc(N3CCOCC3)c(F)c2)C(=O)O1 [Linezolid]
protein bound in human plasma (human plasma protein; human, plasma): 31%

CN(C)c1ccc(O)c2c1C[C@H]1C[C@H]3[C@H](N(C)C)C(O)=C(C(N)=O)C(=O)[C@@]3(O)C(O)=C1C2=O [Minocycline]
human plasma protein binding, Mean (human plasma protein; human, plasma): 76%

Nc1nc(-n2cc(C(=O)O)c(=O)c3cc(F)c(N4CC(O)C4)c(Cl)c32)c(F)cc1F [delafloxacin]
protein bound in human plasma (human plasma protein): > 75%

Cn1nnc(-c2ccc(-c3ccc(N4C[C@H](CO)OC4=O)cc3F)cn2)n1 [tedizolid]
protein bound in human plasma (human plasma protein): > 75%

piperacillin-tazobactam [Pip/tazo]
% R (resistance) (E. coli ESBL−; Asia/Pac, Eucast breakpoints): 2.5%
MIC90 (E. coli ESBL−; Asia/Pac, N=282): 4 µg/mL
% R (resistance) (E. coli ESBL−; Europe, Eucast breakpoints): 5.3%
MIC90 (E. coli ESBL−; Europe, N=1533): 4 µg/mL
% R (resistance) (E. coli ESBL−; L. Amer, CLSI breakpoints): 1.5%
MIC90 (E. coli ESBL−; L. Amer, N=389): 4 µg/mL
% R (resistance) (E. coli ESBL−; N America, CLSI breakpoints): 0.9%
MIC90 (E. coli ESBL−; N America, N=1172): 4 µg/mL
% R (resistance) (E. coli ESBL+; Asia/Pac, Eucast breakpoints): 7.3%
MIC90 (E. coli ESBL+; Asia/Pac, N=219): 16 µg/mL
% R (resistance) (E. coli ESBL+; Europe, Eucast breakpoints): 24.1%
MIC90 (E. coli ESBL+; Europe, N=274): > 64 µg/mL
% R (resistance) (E. coli ESBL+; L. Amer, CLSI breakpoints): 7.7%
MIC90 (E. coli ESBL+; L. Amer, N=168): 64 µg/mL
% R (resistance) (E. coli ESBL+; N America, CLSI breakpoints): 6%
MIC90 (E. coli ESBL+; N America, N=134): 64 µg/mL
% R (resistance) (K. pneumoniae ESBL−; Asia/Pac, Eucast breakpoints): 2.1%
MIC90 (K. pneumoniae ESBL−; Asia/Pac, N=189): 8 µg/mL
% R (resistance) (K. pneumoniae ESBL−; Europe, Eucast breakpoints): 0%
MIC90 (K. pneumoniae ESBL−; Europe, N=361): 8 µg/mL
% R (resistance) (K. pneumoniae ESBL−; L. Amer, CLSI breakpoints): 1.9%
MIC90 (K. pneumoniae ESBL−; L. Amer, N=160): 4 µg/mL
% R (resistance) (K. pneumoniae ESBL−; N America, CLSI breakpoints): 0.7%
MIC90 (K. pneumoniae ESBL−; N America, N=671): 8 µg/mL
% R (resistance) (K. pneumoniae ESBL+; Asia/Pac, Eucast breakpoints): 47.6%
MIC90 (K. pneumoniae ESBL+; Asia/Pac, N=124): > 64 µg/mL
% R (resistance) (K. pneumoniae ESBL+; Europe, Eucast breakpoints): 57%
MIC90 (K. pneumoniae ESBL+; Europe, N=151): > 64 µg/mL
% R (resistance) (K. pneumoniae ESBL+; L. Amer, CLSI breakpoints): 51.7%
MIC90 (K. pneumoniae ESBL+; L. Amer, N=209): > 64 µg/mL
% R (resistance) (K. pneumoniae ESBL+; N America, CLSI breakpoints): 51.9%
MIC90 (K. pneumoniae ESBL+; N America, N=108): > 64 µg/mL
% R (resistance) (K. oxytoca; Asia/Pac, Eucast breakpoints): 17.6%
MIC90 (K. oxytoca; Asia/Pac, N=17): 64 µg/mL
% R (resistance) (K. oxytoca; Europe, Eucast breakpoints): 13.3%
MIC90 (K. oxytoca; Europe, N=158): > 64 µg/mL
% R (resistance) (K. oxytoca; L. Amer, CLSI breakpoints): 16%
MIC90 (K. oxytoca; L. Amer, N=25): > 64 µg/mL
% R (resistance) (K. oxytoca; N America, CLSI breakpoints): 7.9%
MIC90 (K. oxytoca; N America, N=177): 16 µg/mL
% R (resistance) (E. cloacae CeftazS; Asia/Pac, Eucast breakpoints): 1%
MIC90 (E. cloacae CeftazS; Asia/Pac, N=100): 4 µg/mL
% R (resistance) (E. cloacae CeftazS; Europe, Eucast breakpoints): 1.1%
MIC90 (E. cloacae CeftazS; Europe, N=183): 4 µg/mL
% R (resistance) (E. cloacae CeftazS; L. Amer, CLSI breakpoints): 3.5%
MIC90 (E. cloacae CeftazS; L. Amer, N=57): 16 µg/mL
% R (resistance) (E. cloacae CeftazS; N America, CLSI breakpoints): 0.5%
MIC90 (E. cloacae CeftazS; N America, N=210): 4 µg/mL
% R (resistance) (E. cloacae CeftazR; Asia/Pac, Eucast breakpoints): 55.6%
MIC90 (E. cloacae CeftazR; Asia/Pac, N=63): > 64 µg/mL
% R (resistance) (E. cloacae CeftazR; Europe, Eucast breakpoints): 62.5%
MIC90 (E. cloacae CeftazR; Europe, N=72): > 64 µg/mL
% R (resistance) (E. cloacae CeftazR; L. Amer, CLSI breakpoints): 23.8%
MIC90 (E. cloacae CeftazR; L. Amer, N=42): > 64 µg/mL
% R (resistance) (E. cloacae CeftazR; N America, CLSI breakpoints): 48.1%
MIC90 (E. cloacae CeftazR; N America, N=77): > 64 µg/mL
% R (resistance) (Enterobacter spp; Asia/Pac, Eucast breakpoints): 19.2%
MIC90 (Enterobacter spp; Asia/Pac, N=52): 32 µg/mL
% R (resistance) (Enterobacter spp; Europe, Eucast breakpoints): 32.9%
MIC90 (Enterobacter spp; Europe, N=82): 64 µg/mL
% R (resistance) (Enterobacter spp; L. Amer, CLSI breakpoints): 7.1%
MIC90 (Enterobacter spp; L. Amer, N=42): 64 µg/mL
% R (resistance) (Enterobacter spp; N America, CLSI breakpoints): 4%
MIC90 (Enterobacter spp; N America, N=101): 64 µg/mL
MIC90 (A. baumanii; Asia/Pac, N=275): > 64 µg/mL
MIC90 (A. baumanii; Europe, N=145): > 64 µg/mL
% R (resistance) (A. baumanii; L. Amer): 88.7%
MIC90 (A. baumanii; L. Amer, N=275): > 64 µg/mL
% R (resistance) (A. baumanii; N America): 70.1%
MIC90 (A. baumanii; N America, N=154): > 64 µg/mL
MIC90 (Acinetobacter spp; Europe, N=43): > 64 µg/mL
% R (resistance) (Acinetobacter spp; L. Amer): 55.6%
% R (resistance) (Acinetobacter spp; N America): 19%
MIC90 (Acinetobacter spp; N America, N=42): > 64 µg/mL
% R (resistance) (MSSA; Asia/Pac, Eucast breakpoints): 0%
MIC90 (MSSA; Asia/Pac, N=641): 2 µg/mL
% R (resistance) (MSSA; Europe, Eucast breakpoints): 0%
MIC90 (MSSA; Europe, N=2109): 2 µg/mL
% R (resistance) (MSSA; L. Amer, CLSI breakpoints): 0.2%
MIC90 (MSSA; L. Amer, N=590): 2 µg/mL
% R (resistance) (MSSA; N America, CLSI breakpoints): 0.1%
MIC90 (MSSA; N America, N=2373): 2 µg/mL
% R (resistance) (MRSA; Asia/Pac, Eucast breakpoints): 100%
MIC90 (MRSA; Asia/Pac, N=428): > 64 µg/mL
% R (resistance) (MRSA; Europe, Eucast breakpoints): 100%
MIC90 (MRSA; Europe, N=750): > 64 µg/mL
% R (resistance) (MRSA; L. Amer, CLSI breakpoints): 100%
MIC90 (MRSA; L. Amer, N=506): > 64 µg/mL
% R (resistance) (MRSA; N America, CLSI breakpoints): 100%
MIC90 (MRSA; N America, N=2508): 64 µg/mL
% R (resistance) (MS CoNS; Asia/Pac, Eucast breakpoints): 0%
MIC90 (MS CoNS; Asia/Pac, N=18): 1 µg/mL
% R (resistance) (MS CoNS; Europe, Eucast breakpoints): 0%
MIC90 (MS CoNS; Europe, N=185): ≤ 0.5 µg/mL
% R (resistance) (MS CoNS; L. Amer, CLSI breakpoints): 0%
MIC90 (MS CoNS; L. Amer, N=67): 1 µg/mL
% R (resistance) (MS CoNS; N America, CLSI breakpoints): 0%
MIC90 (MS CoNS; N America, N=191): ≤ 0.5 µg/mL
% R (resistance) (MR CoNS; Asia/Pac, Eucast breakpoints): 100%
MIC90 (MR CoNS; Asia/Pac, N=77): > 64 µg/mL
% R (resistance) (MR CoNS; Europe, Eucast breakpoints): 100%
MIC90 (MR CoNS; Europe, N=510): > 64 µg/mL
% R (resistance) (MR CoNS; L. Amer, CLSI breakpoints): 100%
MIC90 (MR CoNS; L. Amer, N=301): > 64 µg/mL
% R (resistance) (MR CoNS; N America, CLSI breakpoints): 100%
MIC90 (MR CoNS; N America, N=461): 16 µg/mL
% R (resistance) (E. faecalis VS; Asia/Pac, Eucast breakpoints): 0%
MIC90 (E. faecalis VS; Asia/Pac, N=214): 8 µg/mL
% R (resistance) (E. faecalis VS; Europe, Eucast breakpoints): 0%
MIC90 (E. faecalis VS; Europe, N=669): 8 µg/mL
% R (resistance) (E. faecalis VS; L. Amer, CLSI breakpoints): 0%
MIC90 (E. faecalis VS; L. Amer, N=290): 8 µg/mL
% R (resistance) (E. faecalis VS; N America, CLSI breakpoints): 0%
MIC90 (E. faecalis VS; N America, N=863): 8 µg/mL
range of MICs (N <10, shown instead of MIC90) (E. faecalis VNS; Asia/Pac, N=1): 8
% R (resistance) (E. faecalis VNS; Europe, Eucast breakpoints): 0%
range of MICs (N <10, shown instead of MIC90) (E. faecalis VNS; Europe, N=8): 4-16
% R (resistance) (E. faecalis VNS; L. Amer, CLSI breakpoints): 0%
range of MICs (N <10, shown instead of MIC90) (E. faecalis VNS; L. Amer, N=7): 4-8
% R (resistance) (E. faecalis VNS; N America, CLSI breakpoints): 0%
MIC90 (E. faecalis VNS; N America, N=38): 8 µg/mL
MIC90 (E. faecium VS; Asia/Pac, N=106): > 64 µg/mL
MIC90 (E. faecium VS; Europe, N=303): > 64 µg/mL
MIC90 (E. faecium VS; L. Amer, N=51): > 64 µg/mL
MIC90 (E. faecium VS; N America, N=115): > 64 µg/mL
MIC90 (E. faecium VNS; Asia/Pac, N=24): > 64 µg/mL
MIC90 (E. faecium VNS; Europe, N=71): > 64 µg/mL
MIC90 (E. faecium VNS; L. Amer, N=41): > 64 µg/mL
MIC90 (E. faecium VNS; N America, N=478): > 64 µg/mL
